Reference: the supplement of paper PMC10307832

Assays:
Experiment in all cases: relative viability (nuclei count vs DMSO), 5 days (fraction); higher = more cells survive
FG-4592 + OSI-027 = compound: Cc1nc(C(=O)NCC(=O)O)c(O)c2ccc(Oc3ccccc3)cc12 [FG-4592] + COc1cccc2cc(-c3nc([C@H]4CC[C@H](C(=O)O)CC4)n4ncnc(N)c34)[nH]c12 [OSI-027] (partner 0.5 µM)
How it was run: (§1)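 Dosing by pin tool came one day after lung cancer cell lines were seeded in 1536-well plates, using either one drug or a fixed anchor-drug dose plus five library-drug doses (not always all listed) in √10 steps. After 5 days, nuclei were counted on 4× images. Relative viability is treated-well nuclei count divided by vehicle-well nuclei count, and values are medians of duplicate plates.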

FG-4592 + Decitabine = compound: Cc1nc(C(=O)NCC(=O)O)c(O)c2ccc(Oc3ccccc3)cc12 [FG-4592] + Nc1ncn([C@H]2C[C@H](O)[C@@H](CO)O2)c(=O)n1 [Decitabine] (partner 2 µM)
How it was run: as §1

FG-4592 + Olaparib = compound: Cc1nc(C(=O)NCC(=O)O)c(O)c2ccc(Oc3ccccc3)cc12 [FG-4592] + O=C(c1cc(Cc2n[nH]c(=O)c3ccccc23)ccc1F)N1CCN(C(=O)C2CC2)CC1 [Olaparib] (partner 8 µM)
How it was run: as §1

IU1-47 + Pemetrexed = compound: CC1=CC(=C(N1C2=CC=C(C=C2)Cl)C)C(=O)CN3CCCCC3 [IU1-47] + Nc1nc2[nH]cc(CCc3ccc(C(=O)N[C@@H](CCC(=O)O)C(=O)O)cc3)c2c(=O)[nH]1 [Pemetrexed] (partner 0.2 µM)
How it was run: as §1

NCI-H647 was tested, and the relative viability (FG-4592 + OSI-027; first compound 0.08 µM) was 0.547, the relative viability (FG-4592 + OSI-027; first compound 0.253 µM) was 0.675 and the relative viability (FG-4592 + OSI-027; first compound 0.8 µM) was 0.686. It also gave a relative viability (FG-4592 + OSI-027; first compound 2.53 µM) of 0.565, a relative viability (FG-4592 + OSI-027; first compound 8 µM) of 0.602 and a relative viability (FG-4592 + Decitabine; first compound 0.08 µM) of 0.347. The relative viability (FG-4592 + Decitabine; first compound 0.253 µM) was 0.326, the relative viability (FG-4592 + Decitabine; first compound 0.8 µM) was 0.341 and the relative viability (FG-4592 + Decitabine; first compound 2.53 µM) was 0.372. The relative viability (FG-4592 + Decitabine; first compound 8 µM) was 0.227, the relative viability (FG-4592 + Olaparib; first compound 0.08 µM) was 0.597 and the relative viability (FG-4592 + Olaparib; first compound 0.253 µM) was 0.533. The relative viability (FG-4592 + Olaparib; first compound 0.8 µM) was 0.489, the relative viability (FG-4592 + Olaparib; first compound 2.53 µM) was 0.635 and the relative viability (FG-4592 + Olaparib; first compound 8 µM) was 0.416. The relative viability (IU1-47 + Pemetrexed; first compound 0.08 µM) was 0.155, the relative viability (IU1-47 + Pemetrexed; first compound 0.253 µM) was 0.189 and the relative viability (IU1-47 + Pemetrexed; first compound 0.8 µM) was 0.182. The relative viability (IU1-47 + Pemetrexed; first compound 2.53 µM) was 0.166 and the relative viability (IU1-47 + Pemetrexed; first compound 8 µM) was 0.159.

With SK-MES-1 the relative viability (FG-4592 + OSI-027; first compound 0.08 µM) was 0.568, the relative viability (FG-4592 + OSI-027; first compound 0.253 µM) was 0.585 and the relative viability (FG-4592 + OSI-027; first compound 0.8 µM) was 0.546. It also gave a relative viability (FG-4592 + OSI-027; first compound 2.53 µM) of 0.483, a relative viability (FG-4592 + OSI-027; first compound 8 µM) of 0.453 and a relative viability (FG-4592 + Decitabine; first compound 0.08 µM) of 0.369. The relative viability (FG-4592 + Decitabine; first compound 0.253 µM) was 0.424, the relative viability (FG-4592 + Decitabine; first compound 0.8 µM) was 0.419 and the relative viability (FG-4592 + Decitabine; first compound 2.53 µM) was 0.414. It also gave a relative viability (FG-4592 + Decitabine; first compound 8 µM) of 0.385, a relative viability (FG-4592 + Olaparib; first compound 0.08 µM) of 0.655 and a relative viability (FG-4592 + Olaparib; first compound 0.253 µM) of 0.624. The relative viability (FG-4592 + Olaparib; first compound 0.8 µM) was 0.786, the relative viability (FG-4592 + Olaparib; first compound 2.53 µM) was 0.748 and the relative viability (FG-4592 + Olaparib; first compound 8 µM) was 0.66. For the same cell line, the relative viability (IU1-47 + Pemetrexed; first compound 0.08 µM) was 0.95, the relative viability (IU1-47 + Pemetrexed; first compound 0.253 µM) was 1.05 and the relative viability (IU1-47 + Pemetrexed; first compound 0.8 µM) was 0.97. It also gave a relative viability (IU1-47 + Pemetrexed; first compound 2.53 µM) of 0.993 and a relative viability (IU1-47 + Pemetrexed; first compound 8 µM) of 0.854.

NCI-H2170 was tested, and the relative viability (FG-4592 + OSI-027; first compound 0.08 µM) was 0.788, the relative viability (FG-4592 + OSI-027; first compound 0.253 µM) was 0.66 and the relative viability (FG-4592 + OSI-027; first compound 0.8 µM) was 0.652. For the same cell line, the relative viability (FG-4592 + OSI-027; first compound 2.53 µM) was 0.693, the relative viability (FG-4592 + OSI-027; first compound 8 µM) was 0.531 and the relative viability (FG-4592 + Decitabine; first compound 0.08 µM) was 0.445. For the same cell line, the relative viability (FG-4592 + Decitabine; first compound 0.253 µM) was 0.479, the relative viability (FG-4592 + Decitabine; first compound 0.8 µM) was 0.447 and the relative viability (FG-4592 + Decitabine; first compound 2.53 µM) was 0.506. It also gave a relative viability (FG-4592 + Decitabine; first compound 8 µM) of 0.356, a relative viability (FG-4592 + Olaparib; first compound 0.08 µM) of 0.573 and a relative viability (FG-4592 + Olaparib; first compound 0.253 µM) of 0.547. The relative viability (FG-4592 + Olaparib; first compound 0.8 µM) was 0.707, the relative viability (FG-4592 + Olaparib; first compound 2.53 µM) was 0.664 and the relative viability (FG-4592 + Olaparib; first compound 8 µM) was 0.52. For the same cell line, the relative viability (IU1-47 + Pemetrexed; first compound 0.08 µM) was 0.28, the relative viability (IU1-47 + Pemetrexed; first compound 0.253 µM) was 0.362 and the relative viability (IU1-47 + Pemetrexed; first compound 0.8 µM) was 0.278. It also gave a relative viability (IU1-47 + Pemetrexed; first compound 2.53 µM) of 0.264 and a relative viability (IU1-47 + Pemetrexed; first compound 8 µM) of 0.258.
